The results in this text go back to US20240376126A1, “PRMT5 INHIBITOR AND THE USE THEREOF” (CYTOSINLAB THERAPEUTICS CO., LTD., priority 2022, published 2024).

Experiment [1] concerns HCT116-MTAP-KO (MTAP null) cells. In words: Proliferation inhibition of HCT116 MTAP-KO cells in vitro (CellTiter Glo, 6 days). Format: cell-based. Conditions: HCT116-MTAP null, 144 h, read-out: Cell proliferation inhibition rate HCT116-MTAP null IC50 (nm). The source says: (§1) Biological Test Example 2 Proliferation Inhibition of HCT116 and HCT116 MTAP-KO Cells In Vitro
(§2) HCT116 cell line was purchased from the Chinese Academy of Sciences Cell Bank, and the MTAP gene was knocked out by CRISPR/Cas9 technology to obtain HCT116-MTAP-KO cell line.
(§3) McCoy's 5A medium (Gibco, catalog No. 16600082), fetal bovine serum (Gibco, catalog No. 10099141C), penicillin-streptomycin double antibody (Gibco, catalog No. 15140122), pancreatic enzyme (Gibco, catalog No. 25200056), CellTiter Glo assay kit (Promega, catalog No. G7572), 384-well transparent flat-bottomed black walled cell culture plate (Corning, catalog No. 3764), ultra micro sampler (Tecan, catalog No. D300e), Multimode reader (Biotek, catalog No. SynergyHTX)
(§4) • 1. Cell culture: HCT116 and HCT116-MTAP-KO cells were cultured in McCoy'5A medium+10% fetal bovine serum+1% penicillin-streptomycin double antibody; to ensure that they were always in the logarithmic growth phase and the cell viability greater than 95%. • 2. Compound concentration gradient preparation: The compound to be tested was added to a 384-well plate using an ultra micro sampler, starting from 30 μM (HCT116 cells) or 3 μM (HCT116-MTAP-KO cells), and diluted with DMSO at 3 times for a total of 9 concentrations and set up three duplicate wells. • 3. Treatment of cells with compounds: Trypsin-digested HCT116 or HCT116-MTAP-KO cell suspension was added to the 384-well plates spotted with the compounds to be tested at 40 μL per well, i.e., 100 cells per well, and the final concentration of DMSO was 0.4%. The cell culture plate was incubated at 37° C. in a 5% CO2 incubator for 6 days. • 4. Detection: 20 μL of CellTiter Glo reagent was added to each well of the cell culture plate and incubated at room temperature for 30 minutes. A multimode reader was used to detect the luminescence signal at […]. • 5. Data analysis:
(§5) The data was fitted with GraphPad Prism 8.0 software using a four parameter inhibitor-reaction model to obtain the […] (half inhibitory concentration) of the test compounds.
(§6) The first column represents cell proliferation inhibition rate HCT116 MTAP WT IC50 (nm), and the second column represents cell proliferation inhibition rate HCT116-MTAP null IC50 (nm): […]
On the technique in general: Cellular ATP, detected with luciferase, serves as a proxy for viable cell number.

For a further experiment, the system named is HCT116 MTAP WT cells. Nature of the experiment: Proliferation inhibition of HCT116 cells in vitro (CellTiter Glo, 6 days). Conditions: Homo sapiens, HCT-116, 144 h, read-out: Cell proliferation inhibition rate HCT116 MTAP WT IC50 (nm). Format: cell-based.
Source text: as §1, §2, §3, §4, §5, §6

Turning to `CC(C)CN(Cc1cn2cc(C(F)(F)F)ccc2n1)C(=O)c1ccc2nc(N)c3c(c2c1)COC3` [Example 3, 4-Amino-N-isobutyl-N—((6-(trifluoromethyl)imidazolo [1,2-a]pyridin-2-yl)methyl)-1,3-dihydrofurano [3,4-c] quinolin-8-carboxamide], the values for the IC50 (in experiment [1]; in the experiment with HCT116 MTAP WT cells) were below 100 nM and 1000 to 10000 nM, respectively.

For `CC1OCc2c1c(N)nc1ccc(C(=O)N(Cc3cn4ccccc4n3)C(C)c3ncccn3)cc21` (stereo not drawn) [Example 5], the values for the IC50 (in experiment [1]; in the experiment with HCT116 MTAP WT cells) were below 100 nM and 1000 to 10000 nM, respectively.

Regarding `CCN(Cc1cn2ccccc2n1)C(=O)c1ccc2nc(N)c3c(c2c1)COC3` [Example 6], the results for the IC50 (in experiment [1]; in the experiment with HCT116 MTAP WT cells) were below 100 nM and 1000 to 10000 nM, respectively.

For the compound `CCN(Cc1cn2ccccc2n1)C(=O)c1ccc2nc(N)c3c(c2c1)COC3C` (stereo not drawn) [Example 7], the IC50 is below 100 nM in experiment [1] and 1000 to 10000 nM in the experiment on HCT116 MTAP WT cells.

For the compound `Cc1cc2cc(C(=O)N(Cc3cn4ccccc4n3)C(C)c3ncccn3)ccc2nc1N` (stereo not drawn) [Example 8], the IC50 in experiment [1] is below 100 nM; with HCT116 MTAP WT cells, 1000 to 10000 nM.

Turning to `Cn1ncc2c(N)nc3cc(F)c(C(=O)N(Cc4cn5ccccc5n4)C4COC4)cc3c21` [Example 9], the results for the IC50 (in experiment [1]; in the experiment on HCT116 MTAP WT cells) were 100 to 1000 nM and 1000 to 10000 nM, respectively.

Take `CCN(C(=O)c1cc2c(cc1F)nc(N)c1cnn(C)c12)C(C)c1cn2ccccc2n1` (stereo not drawn) [Example 10]: the IC50 in experiment [1] is below 100 nM; in the experiment on HCT116 MTAP WT cells, 1000 to 10000 nM.

For `COCCN(Cc1cn2ccccc2n1)C(=O)c1cc2c(cc1F)nc(N)c1cnn(C)c12` [Example 11], the IC50 in experiment [1] was below 100 nM; in the experiment on HCT116 MTAP WT cells, 1000 to 10000 nM.

Turning to `Cn1ncc2c(N)nc3cc(F)c(C(=O)N(Cc4cn5ccccc5n4)C45CC(C4)C5)cc3c21` [Example 12], the IC50 was below 100 nM in experiment [1] and 100 to 1000 nM in the experiment with HCT116 MTAP WT cells.

In the case of `Cn1cc(N(Cc2cn3ccccc3n2)C(=O)c2cc3c(cc2F)nc(N)c2cnn(C)c23)cn1` [Example 14], the results for the IC50 (in experiment [1]; in the experiment on HCT116 MTAP WT cells) were below 100 nM and 1000 to 10000 nM, respectively.

Consider `CCN(C(=O)c1ccc2nc(N)c3c(cnn3C)c2c1)C(C)c1cn2ccccc2n1` (stereo not drawn) [Example 15], for which the IC50 in experiment [1] was 100 to 1000 nM; in the experiment on HCT116 MTAP WT cells it was 1000 to 10000 nM.

For `Cn1cc(N(Cc2cn3cc(C(F)(F)F)ccc3n2)C(=O)c2ccc3nc(N)c4cnn(C)c4c3c2)cn1` [Example 16], the IC50 in experiment [1] is 100 to 1000 nM; in the experiment on HCT116 MTAP WT cells it was 1000 to 10000 nM.

Take `CCN(Cc1cn2ccccc2n1)C(=O)c1ccc2nc(N)c3cnn(C)c3c2c1` [Example 18]: the IC50 is below 100 nM in experiment [1] and 1000 to 10000 nM with HCT116 MTAP WT cells.

With `CC1COCC(c2cn3ccccc3n2)N1C(=O)c1cc2c(cc1F)nc(N)c1cnn(C)c12` (stereo not drawn) [Example 19], the IC50 in experiment [1] was below 100 nM; in the experiment with HCT116 MTAP WT cells it was 100 to 1000 nM.

As for `CC(C)CN(Cc1cn2cc(C#N)ccc2n1)C(=O)c1cc2c(cc1F)nc(N)c1cnn(C)c12` [Example 20], the figures for the IC50 (in experiment [1]; with HCT116 MTAP WT cells) were below 100 nM and 100 to 1000 nM, respectively.

In the case of `Cn1ncc2c(N)nc3cc(F)c(C(=O)N(Cc4cn5ccccc5n4)C4CCOC4)cc3c21` (stereo not drawn) [Example 22], the IC50 in experiment [1] was 100 to 1000 nM; in the experiment with HCT116 MTAP WT cells, 1000 to 10000 nM.

Take `Cn1ncc2c(N)nc3cc(F)c(C(=O)N(Cc4cn5ccccc5n4)C4CCCC4O)cc3c21` (stereo not drawn) [Example 23]: the IC50 in experiment [1] was below 100 nM; in the experiment on HCT116 MTAP WT cells, 1000 to 10000 nM.

For the compound `Cn1ncc2c(N)nc3cc(F)c(C(=O)N(Cc4cn5ccccc5n4)C4CCCCC4O)cc3c21` (stereo not drawn) [Example 24], the IC50 in experiment [1] was below 100 nM; in the experiment on HCT116 MTAP WT cells, 1000 to 10000 nM.

For `CC1COCC(c2cn3ccccc3n2)N1C(=O)c1ccc2nc(N)c3c(cnn3C)c2c1` (stereo not drawn) [Example 25], the IC50 in experiment [1] lay within 100 to 1000 nM; in the experiment on HCT116 MTAP WT cells, 1000 to 10000 nM.

For `Cn1ncc2c(N)nc3cc(F)c(C(=O)N(Cc4cn5ccccc5n4)CC(F)F)cc3c21` [Example 26], the IC50 in experiment [1] is below 100 nM; in the experiment on HCT116 MTAP WT cells, 1000 to 10000 nM.

For the compound `Cc1nn(C)cc1N(Cc1cn2cc(C(F)(F)F)ccc2n1)C(=O)c1cc2c(cc1F)nc(N)c1cnn(C)c12` [Example 238], the IC50 in experiment [1] fell in the range of 100 to 1000 nM.

As to `Cn1nccc1N(Cc1cn2cc(C(F)(F)F)ccc2n1)C(=O)c1cc2c(cc1F)nc(N)c1cnn(C)c12` [Example 240], in experiment [1], the IC50 is below 100 nM.
